The record followed here is patent publication US4735959A, “Carboxylic acid amides and pharmaceutical compositions containing them” (Dr. Karl Thomae GmbH, priority 1981, dated 1988).

Molecules are shown by their SMILES. Where two headings read alike, the source gives them in different places. A value given as a limit tells only on which side of the number the result lay.

Format in all cases: in vivo
One data set deals with blood-sugar. Description: Blood-sugar lowering activity in starved female rats after oral administration. Particulars: for change in vivo at 1 mg/kg / change in vivo at 5 mg/kg / change in vivo at 10 mg/kg: Rattus norvegicus, po, read-out: Blood-sugar lowering activity, percent as compared with the controls; for change in vivo at 10 mg/kg: 10 mg/kg orally (footnote *).
Data set [1] is described as follows: Acute toxicity in female and male mice after oral administration of a single dose. Particulars: mouse, in vivo, observation time 14 days, read-out: Peroral Toxicity. The procedure:
(§1) The acute toxicity was determined in home-bred female and male mice having body weights of from 20 to 26 gm after oral administration (suspension in a 1% methyl cellulose solution) of a single dose. Observation time: 14 days.

In the next data set the test system is mice. The data set is described as above. Particulars: observation time 14 days. The method, then: as §1
[2] abbreviates: 1 mg/kg orally, 1 hour, n.s. = not statistically significant.
The mark [3] stands for this setting: 1 mg/kg orally, 2 hours, n.s. = not statistically significant.
The mark [4] stands for this setting: 1 mg/kg orally, 3 hours, n.s. = not statistically significant.
[5] abbreviates: 1 mg/kg orally, 4 hours, n.s. = not statistically significant.
[6] abbreviates: 5 mg/kg orally, 1 hour, n.s. = not statistically significant.
The mark [7] stands for this setting: 5 mg/kg orally, 2 hours, n.s. = not statistically significant.
The mark [8] stands for this setting: 5 mg/kg orally, 3 hours, n.s. = not statistically significant.
Where [9] appears, read: 5 mg/kg orally, 4 hours, n.s. = not statistically significant.

Turning to `CCCC(NC(=O)Cc1ccc(C(=O)O)cc1)c1ccccc1N1CCCCC1` (racemic) [J, (±)-4-[(1-(2-Piperidino-phenyl)-1-butyl)-aminocarbonylmethyl]-benzoic acid], the change in vivo at 1 mg/kg with blood-sugar (setting [2]) is -38%; in the data set on blood-sugar (setting [3]), -32%; with blood-sugar (setting [4]), -34%; in the data set on blood-sugar (setting [5]), -29%. Besides, the change in vivo at 5 mg/kg was -44% in the data set on blood-sugar (setting [6]), -37% in the data set on blood-sugar (setting [7]), -42% in the data set on blood-sugar (setting [8]) and -42% in the data set with blood-sugar (setting [9]). The LD50 at 336 h in data set [1] is greater than 2000 mg/kg. Also, the animals died with mice is listed as 0 out of 10.
Take `CC/C=C(\NC(=O)Cc1ccc(C(=O)O)cc1)c1ccccc1N1CCCCC1` [A, (Z)-4-[(1-(2-Piperidino-phenyl)-1-buten-1yl)-aminocarbonylmethyl]-benzoicacid]: the change in vivo at 1 mg/kg in the data set on blood-sugar (setting [2]) was -43%; in the data set with blood-sugar (setting [3]) it was -40%; in the data set on blood-sugar (setting [4]), -33%; in the data set with blood-sugar (setting [5]), -35%. Moreover, the LD50 at 336 h in data set [1] was greater than 1000 mg/kg. For the same molecule, the animals died in the data set with mice is 0 out of 6.
Turning to `Cc1ccc(C(NC(=O)Cc2ccc(C(=O)O)cc2)c2ccccc2N2CCCCC2)cc1` (stereo not drawn) [AA, 4-[(α-(4-Methyl-phenyl)-2-piperidino-benzyl)-aminocarbonylmethyl]-benzoic acid], the “Blood-sugar lowering activity, percent as compared with the controls” value (“Blood-sugar lowering activity, percent” for short) with blood-sugar (setting [5]) and in the data set with blood-sugar (setting [9]) was “n.s” each time. The change in vivo at 1 mg/kg with blood-sugar (setting [2]) is -15%; with blood-sugar (setting [3]), -15%; in the data set with blood-sugar (setting [4]) it was -13%. For the same molecule, the change in vivo at 5 mg/kg was -30% in the data set with blood-sugar (setting [6]), -33% with blood-sugar (setting [7]) and -14% in the data set on blood-sugar (setting [8]). Moreover, in data set [1], the LD50 at 336 h is greater than 1000 mg/kg. For the same molecule, the animals died in the data set with mice was 0 out of 10.
On to `Cc1cccc(C(NC(=O)Cc2ccc(C(=O)O)cc2)c2ccccc2N2CCCCC2)c1` (stereo not drawn) [AB, 4-[(α-(3-Methyl-phenyl)-2-piperidino-benzyl)-aminocarbonylmethyl]-benzoic acid], for which the “Blood-sugar lowering activity, percent” value in the data set on blood-sugar (setting [4]) and with blood-sugar (setting [5]) was “n.s” each time. Moreover, the change in vivo at 1 mg/kg in the data set on blood-sugar (setting [2]) was -26%; in the data set with blood-sugar (setting [3]), -15%. Further, the change in vivo at 5 mg/kg in the data set with blood-sugar (setting [6]) was -43%; in the data set with blood-sugar (setting [7]), -38%; in the data set on blood-sugar (setting [8]), -36%; in the data set with blood-sugar (setting [9]) it was -27%. In data set [1], the LD50 at 336 h was greater than 1000 mg/kg. The animals died in the data set with mice is 0 out of 10.
As for `O=C(Cc1ccc(C(=O)O)cc1)NC(c1ccc(F)cc1)c1ccccc1N1CCCCC1` (stereo not drawn) [AC, 4-[(α-(4-Fluoro-phenyl)-2-piperidino-benzyl)-aminocarbonylmethyl]-benzoic acid], the change in vivo at 5 mg/kg in the data set on blood-sugar (setting [6]) was -36%; in the data set with blood-sugar (setting [7]), -37%; with blood-sugar (setting [8]), -36%; in the data set with blood-sugar (setting [9]), -33%. In addition, the LD50 at 336 h in data set [1] is greater than 1000 mg/kg. In the data set with mice, the animals died is recorded as 0 out of 10.
As for `O=C(Cc1ccc(C(=O)O)cc1)NC(c1ccccc1F)c1ccccc1N1CCCCC1` (stereo not drawn) [AD, 4-[(α-(2-Fluoro-phenyl)-2-piperidino-benzyl)-aminocarbonylmethyl]-benzoic acid], the change in vivo at 1 mg/kg was -16% in the data set on blood-sugar (setting [2]), -20% with blood-sugar (setting [3]), -17% with blood-sugar (setting [4]) and -14% in the data set with blood-sugar (setting [5]). Further, the change in vivo at 5 mg/kg in the data set with blood-sugar (setting [6]) was -28%; in the data set on blood-sugar (setting [7]) it was -32%; in the data set on blood-sugar (setting [8]) it was -27%; in the data set on blood-sugar (setting [9]), -28%. In addition, the LD50 at 336 h in data set [1] was greater than 1000 mg/kg. Further, in the data set with mice, the animals died was 0 out of 10.
Regarding `O=C(Cc1ccc(C(=O)O)cc1)NC(c1ccc(Cl)cc1)c1ccccc1N1CCCCC1` (stereo not drawn) [AE, 4-[(α-(4-Chloro-phenyl)-2-piperidino-benzyl)-aminocarbonylmethyl]-benzoic acid], the “Blood-sugar lowering activity, percent” value in the data set on blood-sugar (setting [5]) is reported as “n.s”. Further, the change in vivo at 1 mg/kg in the data set on blood-sugar (setting [2]) is -21%; with blood-sugar (setting [3]), -20%; in the data set with blood-sugar (setting [4]) it was -22%. Also, the change in vivo at 5 mg/kg in the data set with blood-sugar (setting [6]) was -30%; in the data set on blood-sugar (setting [7]) it was -28%; with blood-sugar (setting [8]), -39%; with blood-sugar (setting [9]), -36%. In addition, the LD50 at 336 h in data set [1] was greater than 1000 mg/kg. Also, in the data set on mice, the animals died is 0 out of 10.
Consider `O=C(Cc1ccc(C(=O)O)cc1)NC(c1ccccn1)c1ccccc1N1CCCCC1` (stereo not drawn) [AG, 4-[(2-Piperidino-α-(2-pyridyl)-benzyl)-aminocarbonylmethyl]-benzoic acid], for which the “Blood-sugar lowering activity, percent” value with blood-sugar (setting [3]), with blood-sugar (setting [4]) and in the data set with blood-sugar (setting [5]) was “n.s” each time. The change in vivo at 1 mg/kg with blood-sugar (setting [2]) was -18%. Moreover, the change in vivo at 10 mg/kg in the data set with blood-sugar (1 hour) is -49%; in the data set with blood-sugar (2 hours), -50%; in the data set with blood-sugar (3 hours, n.s. = not statistically significant), -36%; in the data set with blood-sugar (4 hours, n.s. = not statistically significant) it was -31%. Also, the LD50 at 336 h in data set [1] was greater than 1000 mg/kg. The animals died with mice is on record as 0 out of 10.
With `CC/C=C(/NC(=O)Cc1ccc(C(=O)O)cc1)c1ccccc1N1CCCCC1` [C, (E)-4-[(1-(2-Piperidino-phenyl)-1-buten-1-yl)-aminocarbonylmethyl]-benzoic acid], the change in vivo at 1 mg/kg was -43% with blood-sugar (setting [2]), -43% in the data set with blood-sugar (setting [3]), -37% in the data set on blood-sugar (setting [4]) and -38% in the data set with blood-sugar (setting [5]). In data set [1], the LD50 at 336 h is greater than 2000 mg/kg. Also, in the data set on mice, the animals died was 0 out of 6.
On to `CC(C)=C(NC(=O)Cc1ccc(C(=O)O)cc1)c1ccccc1N1CCCCC1` [D, 4-[(2-Methyl-1-(2-piperidino-phenyl)-1-propen-1-yl)-aminocarbonylmethyl]-benzoic acid], for which the change in vivo at 1 mg/kg was -36% in the data set with blood-sugar (setting [2]), -32% in the data set on blood-sugar (setting [3]), -27% in the data set on blood-sugar (setting [4]) and -25% in the data set with blood-sugar (setting [5]). Moreover, in data set [1], the LD50 at 336 h was greater than 500 mg/kg. The animals died with mice is given as 0 out of 6.
